Literature values in patent EP0301423B1 (CHIESI FARMACEUTICI S.p.A., priority 1987, dated 1989).

What was measured:
coronary flow = conditions: mice
isolated coronary artery = conditions: mice

In the case of `CCNc1cc(C)nc2ncnn12` [TP1], the “effect on coronary flow” value (coronary flow) is given as “increase in the coronary flow” and the “effect on the isolated coronary artery” value (isolated coronary artery) is given as “relaxation of the isolated coronary artery”.
